Reference: patent US20100075930A1, “Salicylic salt compositions and related method of treatment of cardiac conditions” (priority 2008, published 2010)
Like-named read-outs stand apart in the source and are kept apart here.

How the values were obtained:
[1] = cited from earlier work
[2] = cited from earlier work; remark: listed apart in the source
[3] = for level of salicylic acid in the blood: 1000 mg under the tongue
Procedure: In order to assess the ability and the rate of absorption of a choline salicylate tablet under the tongue, the following experiment was conducted:

[4] = cited from earlier work; remark: listed apart in the source
[5] = low doses, 75-100 mg daily; cited from earlier work

SMILES: C[N+](C)(C)CCO.O=C([O-])c1ccccc1O [choline salicylate]
- time of salicylic acid blood level peak after administration ([1]; oral administration): 2 h
- reduction of gastrointestinal complications ([2]; as a salt syrup (compared to acid tablet)): 40%
- side effects in clinical use ([2]; syrup absorbed through the gastro intestinal tract): no major side effects
- level of salicylic acid in the blood ([3]; after 4 minutes): 21 mg/Lt
- level of salicylic acid in the blood ([3]; time 0 min): 0.111 mmol/L
- level of salicylic acid in the blood ([3]; time 0 min, conversion factor 0.00724): 15.331 mg/L
- level of salicylic acid in the blood ([3]; time 2 min): 0.124 mmol/L
- level of salicylic acid in the blood ([3]; time 2 min, conversion factor 0.00724): 17.127 mg/L
- level of salicylic acid in the blood ([3]; time 4 min): 0.155 mmol/L
- level of salicylic acid in the blood ([3]; time 4 min, conversion factor 0.00724): 21.409 mg/L
- level of salicylic acid in the blood ([3]; time 6 min): 0.132 mmol/L
- level of salicylic acid in the blood ([3]; time 6 min, conversion factor 0.00724): 18.232 mg/L
- level of salicylic acid in the blood ([3]; time 8 min): 0.096 mmol/L
- level of salicylic acid in the blood ([3]; time 8 min, conversion factor 0.00724): 13.260 mg/L
- level of salicylic acid in the blood ([3]; time 10 min): 0.089 mmol/L
- level of salicylic acid in the blood ([3]; time 10 min, conversion factor 0.00724): 12.293 mg/L
- level of salicylic acid in the blood ([3]; time 12 min): 0.074 mmol/L
- level of salicylic acid in the blood ([3]; time 12 min, conversion factor 0.00724): 10.221 mg/L
- level of salicylic acid in the blood ([3]; time 14 min): 0.067 mmol/L
- level of salicylic acid in the blood ([3]; time 14 min, conversion factor 0.00724): 9.254 mg/L
- level of salicylic acid in the blood ([3]; time 19 min): 0.039 mmol/L
- level of salicylic acid in the blood ([3]; time 19 min, conversion factor 0.00724): 5.387 mg/L
- level of salicylic acid in the blood ([3]; time 24 min): 0.023 mmol/L
- level of salicylic acid in the blood ([3]; time 24 min, conversion factor 0.00724): 3.177 mg/L
- level of salicylic acid in the blood ([3]; time 29 min): 0.040 mmol/L
- level of salicylic acid in the blood ([3]; time 29 min, conversion factor 0.00724): 5.525 mg/L
- level of salicylic acid in the blood ([3]; time 34 min): 0.036 mmol/L
- level of salicylic acid in the blood ([3]; time 34 min, conversion factor 0.00724): 4.972 mg/L
- level of salicylic acid in the blood ([3]; time 39 min): 0.045 mmol/L
- level of salicylic acid in the blood ([3]; time 39 min, conversion factor 0.00724): 6.215 mg/L
- level of salicylic acid in the blood ([3]; time 44 min): 0.054 mmol/L
- level of salicylic acid in the blood ([3]; time 44 min, conversion factor 0.00724): 7.459 mg/L
- salicylic acid presented and available to act in the blood ([3]; 4 minutes after administration, assuming the blood volume is 5 litres): 100 mg
- time of salicylic acid blood level peak after administration ([3]; sublingual method): 4 min

SMILES: CC(=O)Oc1ccccc1C(=O)O [Aspirin, acetyl salicylic acid]
- water solubility [4]: not soluble in water
- level of salicylic acid in the blood ([1]; after digestion of 1000 mg, reached after 2 hours only): 100 mg/Lt
- patients who develop ulcers, perforations, bleeding, obstruction, stricture and/or enteropathy ([2]; patients taking aspirin): More than 22%
- reduction of coronary events [5]: 50%
